Laboratory results taken from PMC11466185, “Mechanisms and efficacy of small molecule latency-promoting agents to inhibit HIV reactivation ex vivo” (JCI Insight, 2024).
Where “and” joins values, the source holds several entries; their conditions need not be identical. Equal entries are not always repeated. Where two headings read alike, the source gives them in different places.

Legend:
[1] = test system: HIV transcripts (TAR, LLTR, Pol, PolyA, TatRev); test: Cell-associated HIV transcripts (RT-ddPCR) 6 days after anti-CD3/CD28 activation of PBMCs from ART-suppressed PWH; assay type: cell-based; conditions: for Pol / PolyA / TAR / TatRev: DMSO αCD3/28 = 100, Fig 4A; for LLTR/TAR / PolyA/LLTR / TatRev/PolyA: DMSO+CD3/28 = 1, Fig 4B, C and D
Experimental: (§1) Next, we evaluated the ability of the candidate LPAs to sustain the inhibitory effects during a prolonged ex vivo culture. To this end, PBMCs were cultured in the presence of individual drugs in DMSO or in DMSO alone as control, activated (anti-CD3/CD28), and harvested after 6 days. […] However, we decided to test the drug on day 6 because extra cells were available from some study participants.
Each drug was tested in PBMCs from at least 6 ART-suppressed study participants (except for KRIBB11, n = 5). PBMCs were aliquoted into wells at 6 × 10^6 cells/well. After activation, the cells were cultured with antiretrovirals in the presence of individual drugs in DMSO or DMSO alone as control. All conditions were tested in the presence of CD3/28 T cell–activating beads, except for the unactivated DMSO condition. After 6 days, total cellular RNA was extracted, and the progression through different stages of HIV transcription was quantified by measuring the levels of initiated (TAR), 5′ elongated (LLTR), midtranscribed/unspliced (Pol), completed (PolyA), and multiply spliced (TatRev) HIV transcripts. (A) The levels of all HIV transcripts were normalized to 1 μg of total cellular RNA and expressed as a percentage of the activated DMSO control (% of activated DMSO). Medians are shown as well as the individual values per study participant in different colors. (B–D) The effect of each drug on HIV transcriptional progression after activation was analyzed by the ratio of one HIV transcript to another. Ratios are independent of HIV infection frequency or normalization to cell numbers. Shown are the proportion of (B) all HIV transcripts that are elongated (LLTR/TAR), (C) elongated HIV transcripts that are completed (PolyA/LLTR), and (D) completed transcripts that are multiply spliced (TatRev/PolyA). Medians and IQR are presented, along with the individual values per study participant in different colors. P values were calculated using Wilcoxon’s signed-rank test: *P < 0.05.
PBMCs were isolated from fresh venous blood from 16 ART-suppressed HIV-infected study participants using Ficoll density gradient centrifugation. The cells were seeded at 6 × 10^6 cells/well and cultured with antiretrovirals (nevirapine and indinavir) to prevent new infection. On the next day, PBMCs were activated with anti-CD3/CD28–coated beads (Invitrogen) in the presence of 20 U/mL IL-2 and individual drugs in DMSO or DMSO alone as a control. Since we were limited in the PBMC yield per study participant, different study participants were used for different experiments (such as the initial screen, dose response, different time points, and studies in activated vs. unstimulated cells). In addition, the yields of PBMCs were sometimes insufficient to test all drugs for a given question or experiment.
(§2) For quantification of cell-associated HIV transcripts, PBMCs were harvested either after 24 hours or after 6 days. The cell viabilities were measured by trypan blue staining; then the cells were pelleted by centrifuging at 300g for 6 minutes and stored at –80°C. For quantification of virion-associated HIV RNA, cell culture supernatant was collected from 6 × 10^6 PBMCs that were treated and activated for 6 days as described above. Residual cells and cellular debris were subsequently removed from the supernatant by differential centrifugation (300g for 6 minutes, then 20,000g for 10 minutes), and the supernatant was stored at –80°C.
Total cellular DNA and RNA were extracted in parallel using Trireagent (Molecular Research Center) according to the manufacturer’s instructions, except for study participants 2147 and 2461 (Figure 4), for whom DNA and RNA were extracted using the QIAGEN AllPrep DNA/RNA/miRNA Universal Kit with on-column DNase I treatment of the RNA and the manufacturer’s modification to enhance recovery of short transcripts.

[2] = test system: PBMCs; assay type: cell-based, human; conditions: 5nM; 6 days after αCD3/28 activation; each row one participant
Experimental: as §1, §2
A) After six days, the viability was measured by trypan blue staining and then normalized to the levels of the activated DMSO (% of activated DMSO). Bars indicate medians and different colors indicate individual study participants. B-F) Each drug was tested in PBMCs from at least six ART-suppressed study participants (except for KRIBB11, n=5) and the PBMCs were aliquoted into wells at 6x10^6 cells/well. After activation, the cells were cultured with antiretrovirals in the presence of individual drugs in DMSO or DMSO alone as control. After six days, total RNA was extracted and the progression through different stages of HIV transcription was (1 picture or pasted object on this page, not shown here)

[3] = test system: HIV transcripts (PolyA, TatRev); test: Dose-response curves of LPAs: polyadenylated and multiply spliced HIV transcripts 24 hours after activation; assay type: cell-based; conditions: for IC50: Human immunodeficiency virus 1, PBMC, 24 h, PBMCs from 1 participant per drug; for MS Tat-Rev (dose-response) / PolyA (dose-response): 24 hours, 1 participant per drug
Experimental: The IC50 was determined based on the reduction in completed (PolyA) as well as multiply spliced (TatRev) HIV transcripts relative to activated DMSO (Table 1).
Figure 2 Dose-response curves of LPAs. Dose-response curves for each drug were generated in PBMCs from 1 ART-suppressed study participant per drug. PBMCs were aliquoted into wells at 6 × 10^6 cells/well, activated, and cultured with antiretrovirals in the presence of DMSO alone (no drug) or varying concentrations of individual drugs in DMSO. After 24 hours, the levels of polyadenylated and multiply spliced HIV transcripts were quantified by RT-ddPCR, normalized to 1 μg of total cellular RNA, and expressed as a percentage of the activated DMSO control (% of activated DMSO).

CO[C@H]([C@@H](C)[C@H]1O[C@]1(C)C[C@H](C)/C=C/C=C(\C)[C@H]1O[C@@H](CC(=O)O)CC[C@@H]1C)[C@@H](C)O [herboxidiene]
LLTR HIV transcripts (DMSO αCD3/28 = 100) ([1]; 5nM, 6 days after αCD3/28 activation, each column one participant): 64.2 and 58.48 and 54.61 and 276.32 and 371.71 and 49.79 and 55 and 16.86 | Pol ([1]; participant 150b): 43.29 | PolyA ([1]; participant 150b): 23.53 | TAR ([1]; participant 150b): 92.09 | TatRev ([1]; participant 150b): 2.69 | LLTR/TAR ([1]; participant 150b): 0.5407 | PolyA/LLTR ([1]; participant 150b): 0.4726 | TatRev/PolyA ([1]; participant 150b): 0.11 | Pol ([1]; participant 1379): 47.94 | PolyA ([1]; participant 1379): 28.08 | TAR ([1]; participant 1379): 40.01 | TatRev ([1]; participant 1379): 171.43 | LLTR/TAR ([1]; participant 1379): 1.462 | PolyA/LLTR ([1]; participant 1379): 0.4801 | TatRev/PolyA ([1]; participant 1379): 6.105 | Pol ([1]; participant 2027): 133.33 | PolyA ([1]; participant 2027): 36.92 | TAR ([1]; participant 2027): 82.42 | TatRev ([1]; participant 2027): 0 | LLTR/TAR ([1]; participant 2027): 0.6673 | PolyA/LLTR ([1]; participant 2027): 0.6713 | Pol ([1]; participant 2147a): 105.88 | PolyA ([1]; participant 2147a): 21.76 | TAR ([1]; participant 2147a): 362.23 | TatRev ([1]; participant 2147a): 28.42 | LLTR/TAR ([1]; participant 2147a): 0.1772 | PolyA/LLTR ([1]; participant 2147a): 0.339 | TatRev/PolyA ([1]; participant 2147a): 0.3013 | Pol ([1]; participant 2161): 169.45 | PolyA ([1]; participant 2161): 268.67 | TAR ([1]; participant 2161): 215.96 | TatRev ([1]; participant 2161): 176.87 | LLTR/TAR ([1]; participant 2161): 1.7212 | PolyA/LLTR ([1]; participant 2161): 0.72 | TatRev/PolyA ([1]; participant 2161): 0.6583 | Pol ([1]; participant 2256): 18.46 | PolyA ([1]; participant 2256): 16.27 | TAR ([1]; participant 2256): 31.94 | TatRev ([1]; participant 2256): 1.4 | LLTR/TAR ([1]; participant 2256): 0.5278 | PolyA/LLTR ([1]; participant 2256): 0.9648 | PolyA ([1]; participant 2461): 1692.31 | TAR ([1]; participant 2461): 52.19 | LLTR/TAR ([1]; participant 2461): 5.294 | PolyA/LLTR ([1]; participant 2461): 6.125 | LLTR/TAR ([1]; participant 2747): 0 | Pol ([1]; participant 5557): 23.16 | PolyA ([1]; participant 5557): 23.33 | TAR ([1]; participant 5557): 83.93 | TatRev ([1]; participant 5557): 0 | LLTR/TAR ([1]; participant 5557): 0.6507 | PolyA/LLTR ([1]; participant 5557): 0.4272 | Cell viability (DMSO αCD3/28 = 100) [2]: 119.6 and 123.7 and 95.53 and 100.64 and 118.06 and 114.9 and 85 and 106.6 and 119.5

N#CC[C@H](C1CCCC1)n1cc(-c2ncnc3[nH]ccc23)cn1 [ruxolitinib]
LLTR/TAR ([1]; participant 150b): 0.6749 | PolyA/LLTR ([1]; participant 150b): 0.4135 | TatRev/PolyA ([1]; participant 150b): 0.45 | LLTR/TAR ([1]; participant 2027): 0.1463 | PolyA/LLTR ([1]; participant 2027): 0.4929 | TatRev/PolyA ([1]; participant 2027): 0 | LLTR/TAR ([1]; participant 2147a): 0.473 | PolyA/LLTR ([1]; participant 2147a): 0.2896 | TatRev/PolyA ([1]; participant 2147a): 0 | LLTR/TAR ([1]; participant 2161): 2.396 | PolyA/LLTR ([1]; participant 2161): 0.46 | TatRev/PolyA ([1]; participant 2161): 0 | LLTR/TAR ([1]; participant 2461): 3.402 | PolyA/LLTR ([1]; participant 2461): 0 | LLTR/TAR ([1]; participant 2747): 0.4032 | PolyA/LLTR ([1]; participant 2747): 1.05 | TatRev/PolyA ([1]; participant 2747): 0 | LLTR/TAR ([1]; participant 2750): 1.117 | PolyA/LLTR ([1]; participant 2750): 1.35 | TatRev/PolyA ([1]; participant 2750): 1.555 | IC50 ([3]; reduction in PolyA HIV transcripts relative to activated DMSO, read-out: Completed (PolyA) IC50): 270 nM | IC50 ([3]; reduction in TatRev HIV transcripts relative to activated DMSO, read-out: Multiply spliced (TatRev) IC50): 260 nM | MS Tat-Rev (dose-response) ([3]; dose 0.4 µM): 41.24 % of activated DMSO | PolyA (dose-response) ([3]; dose 0.4 µM): 33.83 % of activated DMSO | MS Tat-Rev (dose-response) ([3]; dose 1 µM): 15.99 % of activated DMSO | PolyA (dose-response) ([3]; dose 1 µM): 29.83 % of activated DMSO | MS Tat-Rev (dose-response) ([3]; dose 4 µM): 8.19 % of activated DMSO | PolyA (dose-response) ([3]; dose 4 µM): 7.04 % of activated DMSO | MS Tat-Rev (dose-response) ([3]; dose 10 µM): 4.34 % of activated DMSO | PolyA (dose-response) ([3]; dose 10 µM): 4.66 % of activated DMSO
